# Source: US5122515A, “Nutrient composition containing dipeptides and method for administering the same” (priority 1990, dated 1992)
# Experiments:
# [1] = In vitro clearance of tyrosyl-arginine in human whole blood
# Description: Supplementation of an intravenous nutrition solution with the dipeptide tyrosyl-arginine facilitates the infusion of the poorly soluble amino acid tyrosine. We have initiated the first investigations into the metabolism of exogenous tyrosyl-arginine (TryArg). In vitro clearance of tyrosyl-arginine, and the constituent amino acids arginine and tyrosine was assessed in blood from two healthy normal volunteers on five occasions. Whole blood was incubated with tyrosyl-arginine (initially 547 nmol/ml) at 37°°C. for 40 minutes. Throughout this period samples were taken to determine concentration of the dipeptide and individual amino acids.
# [2] = In vivo clearance of tyrosyl-arginine after intravenous bolus in rats; parameters: species or system Sprague Dawley rats; details: rat
# Description: In vivo clearance was assessed in five large (370 g) mature (122 days old) Sprague Dawley rats. The animals were anaesthetised with sodium pentabarbitone and remained anaesthetised during the entire procedure. A large bolus of tyrosyl-arginine (82.1 2.8 μg/g rat, Mean SD) was injected intravenously into a central vein and rapid blood samples (n=11) (total volume=2.0 ml) were obtained through a central venous catheter over 20 minutes. We observed that tyrosyl-arginine was cleared rapidly by rats with an approximate half life of 30 seconds. There was a large and rapid rise in Arg concentration reaching a maximum after 2.5 min and falling to baseline levels after 20 minutes.
"time by which degradation was complete ([1]; human whole blood, 37°C) [h]","half-life at 547 nmol/ml ([1]; human, blood) [min]","concentration in whole blood (mean) ([1]; time 0 min, human whole blood incubated with tyrosyl-arginine (initially 547 nmol/ml) at 37°C) [µM]","concentration in whole blood (mean) ([1]; time 0.5 min, human whole blood incubated with tyrosyl-arginine at 37°C) [µM]","concentration in whole blood (mean) ([1]; time 1.0 min, human whole blood incubated with tyrosyl-arginine at 37°C) [µM]","concentration in whole blood (mean) ([1]; time 2.0 min, human whole blood incubated with tyrosyl-arginine at 37°C) [µM]","concentration in whole blood (mean) ([1]; time 5.0 min, human whole blood incubated with tyrosyl-arginine at 37°C) [µM]","concentration in whole blood (mean) ([1]; time 10.0 min, human whole blood incubated with tyrosyl-arginine at 37°C) [µM]","concentration in whole blood (mean) ([1]; time 20.0 min, human whole blood incubated with tyrosyl-arginine at 37°C) [µM]","concentration in whole blood (mean) ([1]; time 40.0 min, human whole blood incubated with tyrosyl-arginine at 37°C) [µM]","concentration in whole blood (mean) ([1]; time 60.0 min, human whole blood incubated with tyrosyl-arginine at 37°C) [µM]","concentration in whole blood (mean) ([1]; time 120.0 min, human whole blood incubated with tyrosyl-arginine at 37°C) [µM]","half-life ([2]; Sprague Dawley, 82.1 μg/g rat, anaesthetised rats, intravenous bolus of tyrosyl-arginine into a central vein, read-out: approximate half life (in vivo clearance) (converted)) [min]","time over which the concentration, after its rise, fell to baseline [1] [h]",time of fall to baseline levels ([2]; iv) [min],time to maximum concentration ([2]; iv) [min],SMILES
≤ 2,4.2,547,389.85,338.65,278.94,245.52,220.90,149.77,547.0,55.57,0,~0.5,–,–,–,"N=C(N)NCCC[C@H](NC(=O)[C@@H](N)Cc1ccc(O)cc1)C(=O)O [Tyr--Arg, tyrosyl-arginine]"
–,–,–,–,–,–,–,–,–,–,–,–,–,2,20,2.5,"N=C(N)NCCC[C@H](N)C(=O)O [Arg, arginine]"
–,–,–,–,–,–,–,–,–,–,–,–,–,2,–,–,"N[C@@H](Cc1ccc(O)cc1)C(=O)O [Tyr, tyrosine]"
